# Key:
# Puccinia recondita = assay: In vivo preventive test on Puccinia recondita (brown rust on wheat); conditions: 500 ppm, preventive spray, wheat plants, grading 12 days after contamination
# Protocol: Plants, used as controls, are treated with the mixture of acetone/tween/DMSO/water not containing the active material. After 24 hours, the plants are contaminated by spraying the leaves with an aqueous suspension of Puccinia […] spores (100 000 spores per ml). […] Grading (% of efficacy) is carried out 12 days after the contamination, in comparison with the control plants.
# [1] = log P by HPLC on reversed phase columns (EEC directive 79/831 Annex V.A8); assay type: physicochemical; conditions: Table 1, compounds of formula (I); method [a]: LC-MS at pH 2.7, 0.1% formic acid in water / acetonitrile
# Pyricularia oryzae = assay type: in vivo; conditions: 500 ppm, preventive spray, rice plants, grading 6 days after contamination
# Uromyces appendiculatus = assay: In vivo preventive test on Uromyces appendiculatus (bean rust); conditions: 500 ppm, preventive spray, bean plants, grading 11 days after contamination
# Protocol: Bean plants (“Saxa” variety), sown in starter cups on a 50/50 peat soil-pozzolana substrate and grown at 24° C., are treated at the 2-leaf stage (9 cm height) by spraying with the active ingredient prepared as described above. Plants, used as controls, are treated with the mixture of acetone/tween/DMSO/water not containing the active material. After 24 hours, the plants are contaminated by spraying the leaves with an aqueous suspension of Uromyces appendiculatus spores (150 000 spores per ml). […] Grading (% of efficacy) is carried out 11 days after the contamination, in comparison with the control plants.
# Pyrenophora teres = assay: In vivo preventive test on Pyrenophora teres (net blotch on barley); conditions: 500 ppm, preventive spray, barley plants, incubated 48 hours then 12 days
# Protocol: Barley plants (“Plaisant” variety), sown in starter cups on a 50/50 peat soil-pozzolana substrate and grown at 22° C., are treated at the 1-leaf stage (10 cm height) by spraying with the active ingredient prepared as described above. Plants, used as controls, are treated with the mixture of acetone/tween/DMSO/water not containing the active material. After 24 hours, the plants are contaminated by spraying the leaves with an aqueous suspension of Pyrenophora teres spores (12 000 spores per ml). The spores are collected from a 12-day-old culture.
# Sphaerotheca fuliginea = assay: In vivo preventive test on Sphaerotheca fuliginea (powdery mildew on cucurbits); conditions: 500 ppm, preventive spray, gherkin plants, grading 12 days after contamination
# Protocol: Gherkin plants (“Vert petit de Paris” variety), sown in starter cups on a 50/50 peat soil-pozzolana substrate and grown at 24° C., are treated at the Z11 cotyledon stage by spraying with the active ingredient prepared as described above. Plants, used as controls, are treated with the mixture of acetone/tween/DMSO/water not containing the active material. After 24 hours, the plants are contaminated by spraying the cotyledons with an aqueous suspension of Sphaerotheca fuliginea spores (100 000 spores per ml). The spores are collected from infected plants. The contaminated gherkin plants are incubated at about 20° C. and at 70-80% relative humidity. Grading (% of efficacy) is carried out 12 days after the contamination, in comparison with the control plants.
# [2] = system: Blumeria graminis fsp. hordei; assay: In vivo Blumeria test (barley) / preventive; conditions: 500 ppm of active ingredient, evaluated 7 days after the inoculation
# Protocol: [table] To produce a suitable preparation of active compound, 1 part by weight of active compound or active compound combination is mixed with the stated amounts of solvent and emulsifier, and the concentrate is diluted with water to the desired concentration. To test for preventive activity, young plants are sprayed with the preparation of active compound or active compound combination at the stated rate of application. After the spray coating has been dried, the plants are dusted with spores of Blumeria graminis fsp. hordei. The plants are placed in the greenhouse at a temperature of approximately 18° C. and a relative atmospheric humidity of approximately 80% to promote the development of mildew pustules.
# Phakopsora pachyrhizi = assay: In vivo Phakopsora test (soybeans) / preventive; conditions: 10 ppm of active ingredient, evaluated 7 days after the inoculation
# Protocol: (§1) [table] To produce a suitable preparation of active compound, 1 part by weight of active compound is mixed with the stated amounts of solvent and emulsifier, and the concentrate is diluted with water to the desired concentration. To test for preventive activity, young plants are sprayed with the preparation of active compound at the stated rate of application. […] The plants remain in the incubation cabinet at approximately 24° C. and a relative atmospheric humidity of approximately 80% and a day/night interval of 12 h.
# [3] = system: Fusarium nivale (var. majus); assay: In vivo Fusarium nivale (var. majus) test (wheat) / preventive; conditions: 500 ppm of active ingredient, evaluated 5 days after the inoculation
# Protocol: [table] To produce a suitable preparation of active compound, 1 part by weight of active compound or active compound combination is mixed with the stated amounts of solvent and emulsifier, and the concentrate is diluted with water to the desired concentration. To test for preventive activity, young plants are sprayed with the preparation of active compound or active compound combination at the stated rate of application. After the spray coating has been dried, the plants are slightly injured by using a sandblast and afterwards they are sprayed with a conidia suspension of Fusarium nivale (var. majus).
# Alternaria brassicae = assay: In vivo preventive test on Alternaria brassicae (leaf spot on radish); conditions: 500 ppm, preventive spray, radish plants, grading 6 days after contamination
# Protocol: Radish plants (“Pernod Clair” variety), sown in starter cups on a 50/50 peat soil-pozzolana substrate and grown at 17° C., are treated at the cotyledon stage by spraying with the active ingredient prepared as described above. Plants, used as controls, are treated with the mixture of acetone/tween/DMSO/water not containing the active material. After 24 hours, the plants are contaminated by spraying the cotyledons with an aqueous suspension of Alternaria brassicae spores (50 000 spores per ml). The spores are collected from a 15-day-old culture. […] Grading (% of efficacy) is carried out 6 days after the contamination, in comparison with the control plants.
# Phytophthora infestans = assay type: in vivo; conditions: 500 ppm, preventive spray, tomato plants, grading 5 days after contamination
# Venturia inaequalis = assay: In vivo Venturia test (apples) / preventive; conditions: 100 ppm of active ingredient, evaluated 10 days after the inoculation
# Protocol: as §1, with “are then placed” for “remain”, “a greenhouse” for “the incubation cabinet”, “21°” for “24°”, “90%.” for “80% and a day/night interval of 12 h.”
# Botrytis cinerea = assay: In vivo preventive test on Botrytis cinerea (grey mould), gherkin; conditions: 500 ppm, preventive spray, gherkin plants, grading 4 to 5 days after contamination
# Protocol: Gherkin plants (“Vert petit de Paris” variety), sown in starter cups on a 50/50 peat soil-pozzolana substrate and grown at 24° C., are treated at the Z11 cotyledon stage by spraying with the active ingredient prepared as described above. Plants, used as controls, are treated with the mixture of acetone/tween/DMSO/water not containing the active material. After 24 hours, the plants are contaminated by spraying the cotyledons with an aqueous suspension of cryopreserved Botrytis cinerea spores (50 000 spores per ml). The spores are suspended in a nutrient solution composed of 10 g/L of PDB, 50 g/L of D-Fructose, 2 g/L of NH4NO3 and 1 g/L of KH2PO4. The contaminated gherkin plants are incubated at 17° C. and at 90% relative humidity. Grading (% of efficacy) is carried out 4 to 5 days after the contamination, in comparison with the control plants.
# Septoria tritici = assay: In vivo preventive test on Septoria tritici (leaf spot on wheat); conditions: 500 ppm, preventive spray, wheat plants, grading 24 days after contamination
# Protocol: Wheat plants (“Scipion” variety), sown in starter cups on a 50/50 peat soil-pozzolana substrate and grown at 22° C., are treated at the 1-leaf stage (10 cm height) by spraying with the active ingredient prepared as described above. Plants, used as controls, are treated with the mixture of acetone/tween/DMSO/water not containing the active material. After 24 hours, the plants are contaminated by spraying the leaves with an aqueous suspension of cryopreserved Septoria tritici spores (500 000 spores per ml). […] Grading (% of efficacy) is carried out 24 days after the contamination, in comparison with the control plants.
SMILES,Eff. % (Puccinia recondita) [%],logP [1],Eff. % (Pyricularia oryzae) [%],Eff. % (Uromyces appendiculatus) [%],Eff. % (Pyrenophora teres) [%],Eff. % (Sphaerotheca fuliginea) [%],Eff. % [2] [%],Eff. % (Phakopsora pachyrhizi) [%],Eff. % [3] [%],Eff. % (Alternaria brassicae) [%],Eff. % (Phytophthora infestans) [%],Eff. % (Venturia inaequalis) [%],Eff. % (Botrytis cinerea) [%],Eff. % (Septoria tritici) [%]
CC1CC(C(C)C)c2cccc(NC(=O)c3cn(C)nc3C(F)F)c21 (stereo not shown) [Example 1],100,3.74[a],93,100,81,100,80,100,86,–,–,–,–,–
CC1CC(C)c2c(NC(=O)c3cn(C)nc3C(F)F)cccc21 (stereo not shown) [Example 7],100,3.04[a],–,100,92,100,94,100,100,100,99,100,100,93

# Reference: patent publication US9199941B2, “Pyrazole indanyl carboxamides” (BAYER CROPSCIENCE AG, priority 2012, dated 2015)
